Measured values: PubChem BioAssay (NCI)
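96-well plates; 48 h exposure; 5 concentrations. Endpoints by linear interpolation between flanking doses. Not reached: highest tested concentration assigned. GI50 marks 50% less growth. TGI: total growth inhibition.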

Tests used:
Assay in all cases: NCI-60 cell line screen, 48 h
COLO 205 colon = system: COLO 205 colon
U251 CNS = system: U251 CNS
HCC-2998 colon = system: HCC-2998 colon
SK-MEL-2 melanoma = system: SK-MEL-2 melanoma
MDA-MB-231 breast = system: MDA-MB-231 breast
786-0 renal = system: 786-0 renal
OVCAR-8 ovarian = system: OVCAR-8 ovarian
HT29 colon = system: HT29 colon
MDA-MB-435 = system: MDA-MB-435
BT-549 breast = system: BT-549 breast

Structure (SMILES) | GI50 (COLO 205 colon) [µM] | TGI (COLO 205 colon) [µM] | GI50 (U251 CNS) [µM] | TGI (U251 CNS) [µM] | GI50 (HCC-2998 colon) [µM] | TGI (HCC-2998 colon) [µM] | GI50 (SK-MEL-2 melanoma) [µM] | TGI (SK-MEL-2 melanoma) [µM] | GI50 (MDA-MB-231 breast) [µM] | TGI (MDA-MB-231 breast) [µM] | GI50 (786-0 renal) [µM] | TGI (786-0 renal) [µM] | GI50 (OVCAR-8 ovarian) [µM] | TGI (OVCAR-8 ovarian) [µM] | GI50 (HT29 colon) [µM] | TGI (HT29 colon) [µM] | GI50 (MDA-MB-435) [µM] | TGI (MDA-MB-435) [µM] | GI50 (BT-549 breast) [µM] | TGI (BT-549 breast) [µM]
COC(=O)OCc1ccc2c(c1)C(=O)c1c-2n(CCCBr)c(=O)c2cc([N+](=O)[O-])ccc12 | > 100 | > 100 | 35.3 | > 100 | 61.3 | > 100 | > 100 | > 100 | 52.7 | > 100 | 31.7 | 92 | > 100 | > 100 | > 100 | > 100 | > 100 | > 100 | 44.9 | > 100
CS(=O)(=O)CCn1c(=O)c(Oc2ccc(F)cc2F)cc2cnc(NC3CCOCC3)nc21 | > 25 | > 25 | > 25 | > 25 | > 25 | > 25 | > 25 | > 25 | > 25 | > 25 | > 25 | > 25 | > 25 | > 25 | > 25 | > 25 | > 25 | > 25 | > 25 | > 25
CCOc1ccc2ccc3cccnc3c2n1 | – | > 100 | – | > 100 | – | > 100 | – | > 100 | – | > 100 | – | > 100 | – | > 100 | – | > 100 | – | > 100 | – | > 100
C[C@@H](Oc1ccc2[nH]nc(/C=C/c3cnn(CCO)c3)c2c1)c1c(Cl)cncc1Cl | 0.107 | 0.306 | 0.142 | 2.41 | 1.43 | 5.21 | 1.37 | 3.08 | 0.357 | > 26.5 | 0.253 | 2.38 | 0.329 | > 32.1 | 0.171 | 0.681 | 0.866 | 3.12 | 0.142 | 0.75
CN1CCN(c2ccc(NC3=C(Cl)C(=O)c4ncccc4C3=O)cc2C#N)CC1 | 2.06 | 4.51 | 2.01 | 4.44 | 2.34 | 7.03 | 2.26 | 4.69 | 1.57 | 4.17 | 1.72 | 3.23 | 2.59 | 9.37 | 2.16 | 5.14 | 1.91 | 3.67 | 2.25 | 5.95
NC(Cc1ccnnc1)C(=O)O (stereo not given) | – | > 100 | – | > 100 | – | > 100 | – | > 100 | – | > 100 | – | > 100 | – | > 100 | – | > 100 | – | > 100 | – | > 100
CNC(=O)OC1C(O[C@H]2C[C@H]3[C@@H]4CC=C5C[C@@H](O)CC[C@]5(C)[C@H]4CC[C@]3(C)[C@H]2[C@H](C)C(=O)CCC(C)C)OCC(O)C1OC1OCC(O)C(O)C1OC(=O)c1ccc(OC)cc1 (stereo not given in full) | 0.0579 | 0.361 | 0.00334 | 3.87 | 0.693 | 5.25 | 0.00933 | 0.324 | 0.103 | 4.62 | 0.00341 | 0.652 | 2.82 | 11.2 | 0.0631 | 4.92 | 0.0203 | 0.359 | < 0.00275 | 3.49
Cc1ccc(C2C3=C(N=c4s/c(=C/c5ccc(Br)cc5)c(=O)n42)c2ccc4ccccc4c2OCC3)cc1 (stereo not given) | > 100 | > 100 | > 100 | > 100 | > 100 | > 100 | > 100 | > 100 | > 100 | > 100 | > 100 | > 100 | > 100 | > 100 | 67.8 | > 100 | > 100 | > 100 | > 100 | > 100
C[C@]12C3CC[C@@]4(CO)C[C@]3(CCC1[C@](C)(C(=O)O)CC[C@@H]2O)CC4=O (stereo not given in full) | > 100 | > 100 | > 100 | > 100 | > 100 | > 100 | > 100 | > 100 | > 100 | > 100 | > 100 | > 100 | > 100 | > 100 | > 100 | > 100 | > 100 | > 100 | > 100 | > 100
O=c1c2ccccc2nc(-c2ccccc2)n1O | – | > 100 | – | > 100 | – | > 100 | – | > 100 | – | > 100 | – | > 100 | – | > 100 | – | > 100 | – | > 100 | – | > 100
CCc1c(O)c2c(c(O)c1C(C)=O)C(=O)c1c(cc(O)c(C(=O)O)c1C(=O)O)C2=O | – | > 100 | – | > 100 | – | > 100 | – | > 100 | – | > 100 | – | > 100 | – | > 100 | – | > 100 | – | > 100 | – | > 100
C=CCC(N[C@H](CO)c1ccccc1)c1cn(S(=O)(=O)c2ccc(C)cc2)c2ccccc12 (stereo not given in full) | 35.3 | > 100 | 17.6 | 36 | 15.8 | 33.4 | 32.2 | > 100 | 10.7 | 32.3 | > 100 | > 100 | 10.8 | 29.5 | 31.2 | > 100 | 19 | 46.8 | 20.5 | 46.5
COc1ccc(-c2nnc(N3CCN(C(=O)CN4CCN(c5ccc(Cl)cc5)CC4)CC3)nc2-c2ccc(OC)cc2)cc1 | 16.9 | > 100 | 15 | > 100 | 56.8 | > 100 | 35.5 | > 100 | 45.9 | > 100 | 17.5 | 69.8 | 35.8 | > 100 | 4.74 | > 100 | 66.1 | > 100 | 8.88 | 82.8
Cc1ccc2c(c1)O/C(=C\c1ccc([N+](=O)[O-])o1)C2=O | 1.43 | 3.28 | 1.82 | 3.98 | 2.05 | 4.49 | 1.9 | 3.72 | 1.36 | 3.27 | 2.15 | 4.72 | 1.4 | 6.57 | 0.659 | 2.08 | 1.87 | 4.42 | 1.82 | 3.47
